Experimental data published in US6177447A (Universiteit van Amsterdam, priority 1996, dated 2001).
Values joined by “and” are separate entries in the source; they are usually repeats but may differ in a detail not shown here. Equal entries are not always repeated.

Tests used:
glucocerebrosidase [1] = target: T1, glucocerebrosidase (Homo sapiens, UniProt P04062); assay: glucocerebrosidase activity in intact melanoma cells (4MU-b-glucoside, conduritol B-epoxide sensitive); assay type: cell-based; design: the hydrolysis of 4MU-b-glucoside by cultured melanoma cells; endogenous in cells
T1 sequence (P04062 40-536): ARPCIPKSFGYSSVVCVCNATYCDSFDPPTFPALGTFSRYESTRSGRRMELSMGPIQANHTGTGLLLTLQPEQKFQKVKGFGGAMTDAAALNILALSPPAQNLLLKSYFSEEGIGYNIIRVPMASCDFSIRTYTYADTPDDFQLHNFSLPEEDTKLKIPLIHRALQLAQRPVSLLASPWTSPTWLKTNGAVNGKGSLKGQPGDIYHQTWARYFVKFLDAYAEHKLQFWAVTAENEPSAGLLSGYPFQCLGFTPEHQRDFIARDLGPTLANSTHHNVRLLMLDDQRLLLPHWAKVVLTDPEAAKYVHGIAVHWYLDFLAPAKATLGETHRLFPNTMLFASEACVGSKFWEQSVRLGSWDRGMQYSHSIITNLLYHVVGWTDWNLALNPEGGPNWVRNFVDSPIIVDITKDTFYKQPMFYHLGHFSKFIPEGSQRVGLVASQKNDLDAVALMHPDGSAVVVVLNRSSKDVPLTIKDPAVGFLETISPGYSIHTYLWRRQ

[2] = target: T2, glucosylceramide synthase (Homo sapiens, UniProt Q16739); assay: glucosylceramide synthase activity in cultured melanoma cells; assay type: cell-based; details: at IC50 concentration for glucosylceramidase
T2 sequence (Q16739 1-394): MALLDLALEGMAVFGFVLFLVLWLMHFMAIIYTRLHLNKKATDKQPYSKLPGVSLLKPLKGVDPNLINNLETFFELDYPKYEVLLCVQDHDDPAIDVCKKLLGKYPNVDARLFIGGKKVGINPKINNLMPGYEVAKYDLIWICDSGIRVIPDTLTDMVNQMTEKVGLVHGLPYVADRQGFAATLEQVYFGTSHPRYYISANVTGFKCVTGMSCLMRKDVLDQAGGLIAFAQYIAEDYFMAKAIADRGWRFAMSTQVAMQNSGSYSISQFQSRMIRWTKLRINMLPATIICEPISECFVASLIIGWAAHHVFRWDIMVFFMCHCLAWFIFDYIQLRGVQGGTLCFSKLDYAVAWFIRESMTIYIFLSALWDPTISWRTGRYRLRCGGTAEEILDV

lysosomal a-glucosidase [3] = target: T3, lysosomal a-glucosidase (Homo sapiens, UniProt P10253); assay: lysosomal a-glucosidase in cultured melanoma cells; assay type: cell-based; design: endogenous in cells; details: at IC50 concentration for glucosylceramidase
glucocerebrosidase [4] = target: T1, glucocerebrosidase; assay: conduritol B-epoxide inhibitable glucocerebrosidase activity in membrane fraction from human spleen; assay type: biochemical
[5] = target: T4, glucocerebrosidase (Ceredase) (Homo sapiens, UniProt P04062); assay: activity of soluble human placental glucocerebrosidase (Ceredase) towards 4MU-b-glucoside; assay type: biochemical
T4 construct: purchased Genzyme Corp. Boston,USA; host or cells: human placenta
T4 sequence (P04062 40-536): T1 sequence (P04062 40-536)

glucosylceramidase [6] = target: T5, glucosylceramidase (Homo sapiens, UniProt Q9HCG7); assay: glucosylceramidase activity in intact melanoma cells (4MU-b-glucoside, conduritol B-epoxide insensitive); assay type: cell-based; design: endogenous in cells; details: IC50 GLUCOSYLCERAMIDASE
T5 sequence (Q9HCG7 1-927): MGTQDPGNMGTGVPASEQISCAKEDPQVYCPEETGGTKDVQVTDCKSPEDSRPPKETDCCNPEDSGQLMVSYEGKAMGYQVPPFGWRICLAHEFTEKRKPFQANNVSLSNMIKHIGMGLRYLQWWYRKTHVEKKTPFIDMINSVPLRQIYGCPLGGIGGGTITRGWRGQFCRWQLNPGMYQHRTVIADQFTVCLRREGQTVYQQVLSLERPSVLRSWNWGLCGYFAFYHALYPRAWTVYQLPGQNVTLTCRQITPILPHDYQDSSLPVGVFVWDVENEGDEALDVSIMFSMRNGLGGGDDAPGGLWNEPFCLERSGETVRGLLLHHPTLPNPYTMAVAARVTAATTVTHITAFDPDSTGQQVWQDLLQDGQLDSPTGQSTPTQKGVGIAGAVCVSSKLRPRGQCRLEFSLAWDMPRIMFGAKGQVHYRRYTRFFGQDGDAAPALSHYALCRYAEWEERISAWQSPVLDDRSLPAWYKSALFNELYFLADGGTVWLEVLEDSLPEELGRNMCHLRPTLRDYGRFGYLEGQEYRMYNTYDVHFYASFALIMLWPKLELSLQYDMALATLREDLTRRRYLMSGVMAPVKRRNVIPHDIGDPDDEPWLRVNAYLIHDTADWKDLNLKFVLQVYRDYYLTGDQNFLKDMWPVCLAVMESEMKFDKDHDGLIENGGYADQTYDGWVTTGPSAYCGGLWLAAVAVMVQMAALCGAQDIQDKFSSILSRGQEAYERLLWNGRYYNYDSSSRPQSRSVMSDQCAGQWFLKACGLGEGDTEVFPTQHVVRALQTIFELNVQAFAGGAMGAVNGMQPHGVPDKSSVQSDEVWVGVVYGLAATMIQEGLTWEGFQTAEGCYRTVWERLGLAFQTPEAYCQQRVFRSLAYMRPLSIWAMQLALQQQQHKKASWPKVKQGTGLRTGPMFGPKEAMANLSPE

glucosylceramidase [7] = target: T5, glucosylceramidase; assay: glucosylceramidase activity towards 4MU-b-glucoside in conduritol B-epoxide pre-treated membrane suspension from human spleen
glycogen synthase = target: T6, glycogen synthase (Rattus norvegicus, UniProt P17625); assay: glycogen synthase in rat hepatocytes; assay type: cell-based; details: at IC50 concentration for glucosylceramidase
T6 construct: endogenous in cells; host or cells: rat hepatocytes
T6 sequence (P17625 1-704): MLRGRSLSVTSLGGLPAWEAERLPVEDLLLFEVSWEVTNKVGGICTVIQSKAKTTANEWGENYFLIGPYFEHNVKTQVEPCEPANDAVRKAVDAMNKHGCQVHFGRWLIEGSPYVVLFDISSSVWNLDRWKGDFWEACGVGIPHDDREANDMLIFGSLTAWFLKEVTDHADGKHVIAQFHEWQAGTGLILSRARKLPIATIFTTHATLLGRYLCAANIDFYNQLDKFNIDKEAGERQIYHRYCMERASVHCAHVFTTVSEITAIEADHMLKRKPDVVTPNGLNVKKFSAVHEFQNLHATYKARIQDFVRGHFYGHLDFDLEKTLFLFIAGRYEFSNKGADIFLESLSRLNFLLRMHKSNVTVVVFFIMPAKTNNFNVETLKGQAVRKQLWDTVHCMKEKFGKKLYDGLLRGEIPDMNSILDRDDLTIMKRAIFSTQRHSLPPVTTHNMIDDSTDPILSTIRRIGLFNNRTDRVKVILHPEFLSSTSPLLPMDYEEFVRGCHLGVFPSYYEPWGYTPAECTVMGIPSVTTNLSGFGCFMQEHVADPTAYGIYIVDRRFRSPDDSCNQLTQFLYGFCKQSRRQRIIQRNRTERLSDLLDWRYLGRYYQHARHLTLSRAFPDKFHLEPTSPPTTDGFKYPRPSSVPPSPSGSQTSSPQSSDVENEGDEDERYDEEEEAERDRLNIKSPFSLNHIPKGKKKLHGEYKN

lysosomal a-glucosidase [8] = target: T3, lysosomal a-glucosidase; assay: purified lysosomal a-glucosidase activity towards 4MU-a-glucoside; assay type: biochemical; details: 4MU-a-glucoside, pH 4.0; read-out: apparent Ki A-GLUCOSIDASE

## CC(C)CCC[C@@H](C)[C@H]1CC[C@H]2[C@@H]3CC=C4C[C@@H](OCCCCCN5C[C@H](O)[C@@H](O)[C@H](O)[C@H]5CO)CC[C@]4(C)[C@H]3CC[C@]12C [P24, N-(5-cholesteroloxy-pentyl)-deoxynojirimycin]
Glucocerebrosidase [1]
  IC50: 800 nM
Glucocerebrosidase [1]; melanoma cells, at IC50 for glucosylceramidase or ten-fold higher concentrations
  inhibition of glucocerebrosidase activity: no significant inhibition
[2]
  inhibition of glucosylceramide synthase activity: no inhibition
Lysosomal a-glucosidase [3]
  inhibition of lysosomal a-glucosidase: no inhibition
Glucocerebrosidase [4]
  IC50: 700 nM
Glucocerebrosidase [4]; membrane suspension, 4MU-b-glucoside, pH 5.2, read-out: apparent Ki GLUCOCEREBROSIDASE MEMBRANES
  Ki: 770 nM
[5]
  IC50: 800 nM
[5]; soluble enzyme, 0.25% sodium taurocholate, 0.1% Triton X-100, pH 5.2, read-out: apparent Ki GLUCOCEREBROSIDASE CEREDASE
  Ki: 960 nM
Glucosylceramidase [6]
  IC50: 50 nM and ~50 nM
Glucosylceramidase [7]
  IC50: 100 nM
  Ki: 97 nM
Glycogen synthase
  inhibition of glycogen synthase: no inhibition
Lysosomal a-glucosidase [8]
  Ki: 7200 nM
